Source: patent publication US6919188B1, “Pseudomycin production by Pseudomonas syringae” (Eli Lilly and Company, priority 1999, dated 2005)
“Also recorded” adds a separate entry of the source. Starred links: 1 amine or outer side, 2 acyl side, 3 side chain; linkers in the order of their positions; H or OH if unused. Positions of bridges follow the written chain, without caps; N, C: chain ends. Non-standard residues stand in square brackets, D forms with d. Residues, ends and D or L forms follow the SMILES beside them. ξ: configuration not given here. *: point of attachment. Tetradecanoyl(3R-OH) = CCCCCCCCCCC[C@@H](O)CC(=O)*; Asp(3S-OH) = N[C@H](C(=O)O)[C@H](O)C(=O)O; Thr(4-Cl) = N[C@H](C(=O)O)[C@H](O)CCl; ξAsp(3ξ-OH) = NC(C(=O)O)C(O)C(=O)O; X3 = O=C(C(N[*:1])C(O)CCl)[*:2]; X1 = CCCCCCCCCCC(O)C(O)CC(=O)*; aThr = C[C@H](O)[C@H](N)C(=O)O; X2 = C/C=C(/N[*:1])C(=O)[*:2]; dDab = NCC[C@@H](N)C(=O)O; Dab = NCC[CH](N)C(=O)O; Dhb = C/C=C(\N)C(=O)O

How the values were obtained:
[1] = tested on: fungi, including important fungal pathogens in both humans and plants; settings: isolated pseudomycins; spectrum of fungi; cited from earlier work
[2] = Toxicity of pseudomycins (general statement); settings: no species or dose given
[3] = tested on: fungi, including important fungal pathogens in both humans and plants; assay: Antifungal activity of isolated pseudomycins (general statements, literature); type: cell-based; settings: comparison with pseudomycins A, C, certain fungi

Structure (SMILES)	antifungal activity [1]	toxicity [2]	potency against fungi compared to the other preferred pseudomycins [3]
C/C=C1/NC(=O)C(C(C)O)NC(=O)C(CCN)NC(=O)C(CCCCN)NC(=O)C(CC(=O)O)NC(=O)C(CCN)NC(=O)C(NC(=O)CC(O)C(O)CCCCCCCCCC)COC(=O)C(C(O)CCl)NC(=O)C(C(O)C(=O)O)NC1=O (centres unmarked) [Pseudomycin A] (X1-S[Dab]DK[Dab]T[X2][ξAsp(3ξ-OH)][X3]; ester 1-C; configuration not given here)	activity against a wide variety of fungi; also recorded: wide spectrum antifungal activity	generally acceptable toxicity	–
C/C=C1\NC(=O)[C@H]([C@H](C)O)NC(=O)[C@H](CCN)NC(=O)[C@H](CCCCN)NC(=O)[C@H](CC(=O)O)NC(=O)[C@@H](CCN)NC(=O)[C@@H](NC(=O)C[C@H](O)CCCCCCCCCCC)COC(=O)[C@H]([C@H](O)CCl)NC(=O)[C@H]([C@H](O)C(=O)O)NC1=O [Pseudomycin B] ({Tetradecanoyl(3R-OH)}-S[dDab]DK[Dab][aThr][Dhb][Asp(3S-OH)][Thr(4-Cl)]; ester 1-C)	activity against a wide variety of fungi; also recorded: wide spectrum antifungal activity	generally acceptable toxicity; also recorded: lower level of toxicity	greater potency against certain fungi
